Laboratory results taken from patent publication US10253049B2, “Boronic acid derivatives” (MERCK PATENT GMBH, priority 2014, dated 2019).

Columns and labels:
[1] = molecular target: Beta5 (purified human constitutive proteasome) (Homo sapiens, UniProt P28074); experiment: Determination of Beta5 activity (fluorescence intensity assay, Suc-LLVY-AMC); format: biochemical
Procedure: Determination of Beta5 Activity
Measurement of Beta5 inhibition is performed in 384 well format based on fluorescence intensity assay.
(§1) Purified human constitutive proteasome (1.25 nM) and serial diluted compounds in DMSO (range of concentrations from 30 μM to 15 pM) or controls are incubated for 20 minutes or 120 minutes (long incubation) at 25° C. in assay buffer containing 50 mM Tris pH 7.4, 0.03% SDS, 1 mM EDTA and 1% DMSO. The reaction is initiated by the addition of the fluorogenic peptide substrate, Suc-LLVY-AMC (Bachem I-1395), at a concentration of 40 μM. After 60 minutes of incubation at 37° C., fluorescence intensity is measured at λex=350 nm and λem=450 nm with a fluorescence reader (Perkin Elmer Envision reader or equivalent).
(§2) Unless indicated otherwise the results are obtained after incubation for 20 minutes.

[2] = molecular target: LMP7 (purified human immunoproteasome) (Homo sapiens, UniProt P28062); experiment: Determination of LMP7 activity (fluorescence intensity assay, Suc-LLVY-AMC); format: biochemical
Procedure: Determination of LMP7 Activity
Measurement of LMP7 inhibition is performed in 384 well format based on fluorescence intensity assay.
as §1, with “immunoproteasome (0.25” for “constitutive proteasome (1.25”
as §2

Row | IC50 ([2]; incubation for 20 minutes) | IC50 ([1]; incubation for 20 minutes) | Selectivity LMP7 vs Beta5 ([1]; incubation for 20 minutes) | further results | SMILES
1 | – | – | – | IC50 ([1]; long incubation (120 min)): 50 to 500 nM; Selectivity LMP7 vs Beta5 ([1]; long incubation (120 min)): +++++ (+++++: Selectivity ≥ 70); IC50 ([2]; long incubation (120 min)): < 50 nM | CCN(CCC(=O)N[C@@H](C[C@@H]1COc2ccccc21)B(O)O)C(=O)c1ccc(Cl)cc1 [Compound No. 42, [(1R)-1-[3-[(4-chlorobenzoyl)-ethyl-amino]propanoylamino]-2-[(3S)-2,3-dihydrobenzofuran-3-yl]ethyl]boronic acid]
2 | 50 to 500 nM | – | – | – | Cc1ccc(C[C@H](NC(=O)CCN(C(C)C)S(C)(=O)=O)B(O)O)cc1 [Compound No. 15, [(1R)-1-[3-[isopropyl(methylsulfonyl)amino]propanoylamino]-2-(p-tolyl)ethyl]boronic acid]
3 | < 50 nM | 50 to 500 nM | ++++ (++++: 50 ≤ Selectivity < 70) | – | CCN(CCC(=O)N[C@@H](Cc1ccc(F)cc1)B(O)O)C(=O)c1ccc(Cl)cc1 [Compound No. 26, [(1R)-1-[3-[(4-chlorobenzoyl)-ethyl-amino]propanoylamino]-2-(4-fluorophenyl)ethyl]boronic acid]
4 | – | – | – | IC50 ([1]; long incubation (120 min)): > 5000 nM; IC50 ([2]; long incubation (120 min)): 500 to 5000 nM | CN(CC(=O)N[C@@H](Cc1ccsc1)B(O)O)C(=O)c1ccccc1C(F)(F)F [Compound No. 40, [(1R)-1-[[2-[methyl-[2-(trifluoromethyl)benzoyl]amino]acetyl]amino]-2-(3-thienyl)ethyl]boronic acid]
5 | < 50 nM | 500 to 5000 nM | +++++ (+++++: Selectivity ≥ 70) | – | CCN(CC(=O)N[C@@H](Cc1ccc(C)cc1C)B(O)O)S(=O)(=O)c1ccc(C)cc1 [Compound No. 30, [(1R)-2-(2,4-dimethylphenyl)-1-[[2-[ethyl(p-tolylsulfonyl)amino]acetyl]-amino]ethyl]boronic acid]
6 | 50 to 500 nM | – | – | – | CCN(CCC(=O)N[C@@H](Cc1ccccc1)B(O)O)C(=O)c1cccc(C)c1 [Compound No. 13, [(1R)-1-[3-[ethyl-(3-methylbenzoyl)amino]propanoylamino]-2-phenyl-ethyl]boronic acid]
7 | 50 to 500 nM | – | – | – | CCN(CC(=O)N[C@@H](Cc1ccccc1)B(O)O)C(=O)c1ccccc1 [Compound No. 17, [(1R)-1-[[2-[benzoyl(ethyl)amino]acetyl]amino]-2-phenyl-ethyl]boronic acid]
8 | 50 to 500 nM | – | – | – | CC(=O)N(CCC(=O)N[C@@H](Cc1ccccc1)B(O)O)c1ccccc1 [Compound No. 1, [(1R)-1-[3-(N-acetylanilino)propanoylamino]-2-phenyl-ethyl]boronic acid]
9 | < 50 nM | 500 to 5000 nM | +++++ (+++++: Selectivity ≥ 70) | – | CN(C)C(=O)C(C(=O)N[C@@H](Cc1coc2ccccc12)B(O)O)c1ccccc1 (stereo partly drawn) [Compound No. 38, [(1R)-2-(benzofuran-3-yl)-1-[[3-(dimethylamino)-3-oxo-2-phenyl-propanoyl]amino]ethyl]boronic acid]
10 | – | – | – | IC50 ([1]; long incubation (120 min)): 500 to 5000 nM; Selectivity LMP7 vs Beta5 ([1]; long incubation (120 min)): +++++ (+++++: Selectivity ≥ 70); IC50 ([2]; long incubation (120 min)): < 50 nM | Cc1ccc(S(=O)(=O)N(CC(=O)N[C@@H](C[C@@H]2COc3ccccc32)B(O)O)C(C)C)cc1 [Compound No. 41, [(1R)-2-[(3S)-2,3-dihydrobenzofuran-3-yl]-1-[[2-[isopropyl(p-tolylsulfonyl)amino]acetyl]amino]ethyl]boronic acid]
11 | < 50 nM | – | – | – | Cc1ccc(C[C@H](NC(=O)CCN(C(C)C)S(=O)(=O)c2ccccc2)B(O)O)cc1 [Compound No. 6, [(1R)-1-[3-[benzenesulfonyl(isopropyl)amino]propanoylamino]-2-(p-tolyl)ethyl]boronic acid]
12 | 50 to 500 nM | 500 to 5000 nM | +++ (+++: 30 ≤ Selectivity < 50) | – | CC(C)N(CCC(=O)N[C@@H](Cc1ccccc1)B(O)O)C(=O)c1ccccc1 [Compound No. 9, [(1R)-1-[3-[benzoyl(isopropyl)amino]propanoylamino]-2-phenyl-ethyl]boronic acid]
13 | < 50 nM | 500 to 5000 nM | ++++ (++++: 50 ≤ Selectivity < 70) | – | CCN(CCC(=O)N[C@@H](Cc1ccc(F)cc1)B(O)O)C(=O)c1ccc(C#N)cc1 [Compound No. 28, [(1R)-1-[3-[(4-cyanobenzoyl)-ethyl-amino]propanoylamino]-2-(4-fluorophenyl)ethyl]boronic acid]
14 | < 50 nM | 500 to 5000 nM | ++++ (++++: 50 ≤ Selectivity < 70) | – | CCN(CCC(=O)N[C@@H](Cc1ccc(F)cc1)B(O)O)C(=O)c1ccc(OC)cc1 [Compound No. 25, [(1R)-1-[3-[ethyl-(4-methoxybenzoyl)amino]propanoylamino]-2-(4-fluorophenyl)ethyl]boronic acid]
15 | 50 to 500 nM | > 5000 nM | +++++ (+++++: Selectivity ≥ 70) | – | CCC(=O)N(CC)CC(=O)N[C@@H](Cc1ccc(C)cc1C)B(O)O [Compound No. 24, [(1R)-2-(2,4-dimethylphenyl)-1-[[2-[ethyl(propanoyl)amino]acetyl]-amino]ethyl]boronic acid]
16 | 50 to 500 nM | – | – | – | CCN(CCC(=O)N[C@@H](Cc1ccccc1)B(O)O)C(=O)c1ccccc1C [Compound No. 12, [(1R)-1-[3-[ethyl-(2-methylbenzoyl)amino]propanoylamino]-2-phenyl-ethyl]boronic acid]
17 | 50 to 500 nM | 500 to 5000 nM | +++ (+++: 30 ≤ Selectivity < 50) | – | CCc1cccc(C[C@H](NC(=O)CCS(C)(=O)=O)B(O)O)c1 [Compound No. 20, [(1R)-2-(3-ethylphenyl)-1-(3-methylsulfonylpropanoylamino)ethyl]-boronic acid]
18 | < 50 nM | 50 to 500 nM | ++++ (++++: 50 ≤ Selectivity < 70) | – | Cc1ccc(C[C@H](NC(=O)CN(c2ccccc2)S(=O)(=O)c2ccccc2)B(O)O)c(C)c1 [Compound No. 35, [(1R)-1-[[2-[N-(benzenesulfonyl)anilino]acetyl]amino]-2-(2,4-dimethylphenyl)ethyl]boronic acid]
19 | < 50 nM | 500 to 5000 nM | +++++ (+++++: Selectivity ≥ 70) | – | CCN(CCC(=O)N[C@@H](Cc1ccc(C)cc1C)B(O)O)C(=O)c1ccc(C)cc1 [Compound No. 19, [(1R)-2-(2,4-dimethylphenyl)-1-[3-[ethyl-(4-methylbenzoyl)amino]-propanoylamino]-ethyl]boronic acid]
20 | < 50 nM | 50 to 500 nM | +++ (+++: 30 ≤ Selectivity < 50) | – | CCN(CC(=O)N[C@@H](Cc1ccc(C)cc1)B(O)O)S(=O)(=O)c1ccccc1 [Compound No. 16, [(1R)-1-[[2-[benzenesulfonyl(ethyl)amino]acetyl]amino]-2-(p-tolyl)ethyl]boronic acid]
21 | < 50 nM | 50 to 500 nM | +++++ (+++++: Selectivity ≥ 70) | – | Cc1ccc(S(=O)(=O)N(C)CC(=O)N[C@@H](Cc2ccc(C)cc2C)B(O)O)cc1 [Compound No. 32, [(1R)-2-(2,4-dimethylphenyl)-1-[[2-[methyl(p-tolylsulfonyl)amino]-acetyl]amino]ethyl]boronic acid]
22 | < 50 nM | – | – | – | Cc1ccc(C[C@H](NC(=O)CCN(C)S(=O)(=O)c2ccccc2)B(O)O)cc1 [Compound No. 7, [(1R)-1-[3-[benzenesulfonyl(methyl)amino]propanoylamino]-2-(p-tolyl)ethyl]boronic acid]
23 | < 50 nM | 500 to 5000 nM | +++++ (+++++: Selectivity ≥ 70) | – | CCC(=O)N(CC(=O)N[C@@H](Cc1ccc(C)cc1C)B(O)O)c1ccccc1 [Compound No. 34, [(1R)-2-(2,4-dimethylphenyl)-1-[[2-(N-propanoylanilino)acetyl]amino]-ethyl]boronic acid]
24 | 50 to 500 nM | – | – | – | CCc1cccc(C[C@H](NC(=O)CCCCS(C)(=O)=O)B(O)O)c1 [Compound No. 22, [(1R)-2-(3-ethylphenyl)-1-(5-methylsulfonylpentanoylamino)ethyl]-boronic acid]
25 | < 50 nM | – | – | – | CCS(=O)(=O)N(CCC(=O)N[C@@H](Cc1ccc(C)cc1)B(O)O)c1ccccc1 [Compound No. 2, [(1R)-1-[3-(N-ethylsulfonylanilino)propanoylamino]-2-(p-tolyl)ethyl]boronic acid]
26 | < 50 nM | – | – | – | CCN(CCC(=O)N[C@@H](Cc1ccc(C)cc1)B(O)O)S(=O)(=O)c1ccccc1 [Compound No. 5, [(1R)-1-[3-[benzenesulfonyl(ethyl)amino]propanoylamino]-2-(p-tolyl)ethyl]boronic acid]
27 | 50 to 500 nM | – | – | – | CN(CCC(=O)N[C@@H](Cc1ccccc1)B(O)O)C(=O)c1ccccc1 [Compound No. 10, [(1R)-1-[3-[benzoyl(methyl)amino]propanoylamino]-2-phenyl-ethyl]boronic acid]
28 | < 50 nM | – | – | – | CCN(CCC(=O)N[C@@H](Cc1ccc(C)cc1)B(O)O)S(=O)(=O)CC [Compound No. 11, [(1R)-1-[3-[ethyl(ethylsulfonyl)amino]propanoylamino]-2-(p-tolyl)ethyl]boronic acid]
29 | < 50 nM | – | – | – | CS(=O)(=O)CCC(=O)N[C@@H](Cc1coc2ccccc12)B(O)O [Compound No. 23, [(1R)-2-(benzofuran-3-yl)-1-(3-methylsulfonylpropanoylamino)ethyl]-boronic acid]
